Laboratory results: paper PMC3228837 (Journal of medicinal chemistry, 2011)

Key:
NaV1.2 = NaV1.2 (Rattus norvegicus, UniProt P04775); type: cell-based
NaV1.6 = NaV1.6 (Mus musculus, UniProt Q9WTU3); type: cell-based
Sequence of NaV1.6 (Q9WTU3 whole entry, looked up): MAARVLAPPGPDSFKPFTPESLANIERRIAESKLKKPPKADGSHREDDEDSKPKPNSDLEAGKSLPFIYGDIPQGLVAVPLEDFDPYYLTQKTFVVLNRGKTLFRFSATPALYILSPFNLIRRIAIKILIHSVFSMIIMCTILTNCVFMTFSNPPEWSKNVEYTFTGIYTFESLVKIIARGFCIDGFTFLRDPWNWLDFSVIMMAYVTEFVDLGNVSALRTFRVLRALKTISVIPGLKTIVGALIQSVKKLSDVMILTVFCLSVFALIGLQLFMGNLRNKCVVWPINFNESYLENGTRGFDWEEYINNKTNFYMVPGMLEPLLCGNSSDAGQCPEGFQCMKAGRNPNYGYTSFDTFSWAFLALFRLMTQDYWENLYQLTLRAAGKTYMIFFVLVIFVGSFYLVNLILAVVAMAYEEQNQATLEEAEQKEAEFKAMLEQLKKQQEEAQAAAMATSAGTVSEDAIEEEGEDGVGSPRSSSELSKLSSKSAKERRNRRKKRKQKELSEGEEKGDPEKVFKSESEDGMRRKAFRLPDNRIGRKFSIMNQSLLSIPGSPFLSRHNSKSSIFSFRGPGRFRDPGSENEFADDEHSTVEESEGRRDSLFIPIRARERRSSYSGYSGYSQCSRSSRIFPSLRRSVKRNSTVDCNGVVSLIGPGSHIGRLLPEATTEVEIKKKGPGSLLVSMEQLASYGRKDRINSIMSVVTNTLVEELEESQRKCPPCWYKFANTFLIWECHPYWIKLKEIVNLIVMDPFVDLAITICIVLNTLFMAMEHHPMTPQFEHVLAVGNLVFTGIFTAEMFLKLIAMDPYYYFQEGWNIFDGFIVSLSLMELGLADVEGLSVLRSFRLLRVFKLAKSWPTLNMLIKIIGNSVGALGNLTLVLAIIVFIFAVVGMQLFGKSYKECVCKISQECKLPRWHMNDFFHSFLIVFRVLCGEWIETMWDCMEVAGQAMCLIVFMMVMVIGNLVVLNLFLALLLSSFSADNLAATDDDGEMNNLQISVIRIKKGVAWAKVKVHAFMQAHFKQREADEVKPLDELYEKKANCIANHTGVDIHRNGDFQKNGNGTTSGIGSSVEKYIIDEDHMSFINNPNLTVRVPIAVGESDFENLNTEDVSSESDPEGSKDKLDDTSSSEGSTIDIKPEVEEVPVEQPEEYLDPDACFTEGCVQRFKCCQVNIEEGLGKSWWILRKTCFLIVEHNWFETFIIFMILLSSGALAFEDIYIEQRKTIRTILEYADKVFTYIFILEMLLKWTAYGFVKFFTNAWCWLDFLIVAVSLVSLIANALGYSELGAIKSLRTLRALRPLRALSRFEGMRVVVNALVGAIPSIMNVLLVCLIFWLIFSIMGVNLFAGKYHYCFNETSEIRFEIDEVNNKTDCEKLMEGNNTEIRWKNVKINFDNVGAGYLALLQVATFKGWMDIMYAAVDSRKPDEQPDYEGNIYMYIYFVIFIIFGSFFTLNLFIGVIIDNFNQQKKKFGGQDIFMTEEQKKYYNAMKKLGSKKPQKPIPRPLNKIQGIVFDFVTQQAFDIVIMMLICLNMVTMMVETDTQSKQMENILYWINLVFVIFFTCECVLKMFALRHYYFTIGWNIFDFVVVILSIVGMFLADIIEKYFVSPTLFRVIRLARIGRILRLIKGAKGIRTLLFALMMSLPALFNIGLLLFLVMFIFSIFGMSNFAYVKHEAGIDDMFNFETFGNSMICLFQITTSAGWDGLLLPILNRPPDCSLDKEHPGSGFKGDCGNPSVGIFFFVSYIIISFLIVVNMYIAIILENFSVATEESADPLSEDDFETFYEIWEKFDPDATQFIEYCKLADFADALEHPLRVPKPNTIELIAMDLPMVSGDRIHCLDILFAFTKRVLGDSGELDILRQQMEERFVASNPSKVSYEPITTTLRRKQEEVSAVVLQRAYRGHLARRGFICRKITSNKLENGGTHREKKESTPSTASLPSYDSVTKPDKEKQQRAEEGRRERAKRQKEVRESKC

Sequence of NaV1.2 (P04775 whole entry, looked up): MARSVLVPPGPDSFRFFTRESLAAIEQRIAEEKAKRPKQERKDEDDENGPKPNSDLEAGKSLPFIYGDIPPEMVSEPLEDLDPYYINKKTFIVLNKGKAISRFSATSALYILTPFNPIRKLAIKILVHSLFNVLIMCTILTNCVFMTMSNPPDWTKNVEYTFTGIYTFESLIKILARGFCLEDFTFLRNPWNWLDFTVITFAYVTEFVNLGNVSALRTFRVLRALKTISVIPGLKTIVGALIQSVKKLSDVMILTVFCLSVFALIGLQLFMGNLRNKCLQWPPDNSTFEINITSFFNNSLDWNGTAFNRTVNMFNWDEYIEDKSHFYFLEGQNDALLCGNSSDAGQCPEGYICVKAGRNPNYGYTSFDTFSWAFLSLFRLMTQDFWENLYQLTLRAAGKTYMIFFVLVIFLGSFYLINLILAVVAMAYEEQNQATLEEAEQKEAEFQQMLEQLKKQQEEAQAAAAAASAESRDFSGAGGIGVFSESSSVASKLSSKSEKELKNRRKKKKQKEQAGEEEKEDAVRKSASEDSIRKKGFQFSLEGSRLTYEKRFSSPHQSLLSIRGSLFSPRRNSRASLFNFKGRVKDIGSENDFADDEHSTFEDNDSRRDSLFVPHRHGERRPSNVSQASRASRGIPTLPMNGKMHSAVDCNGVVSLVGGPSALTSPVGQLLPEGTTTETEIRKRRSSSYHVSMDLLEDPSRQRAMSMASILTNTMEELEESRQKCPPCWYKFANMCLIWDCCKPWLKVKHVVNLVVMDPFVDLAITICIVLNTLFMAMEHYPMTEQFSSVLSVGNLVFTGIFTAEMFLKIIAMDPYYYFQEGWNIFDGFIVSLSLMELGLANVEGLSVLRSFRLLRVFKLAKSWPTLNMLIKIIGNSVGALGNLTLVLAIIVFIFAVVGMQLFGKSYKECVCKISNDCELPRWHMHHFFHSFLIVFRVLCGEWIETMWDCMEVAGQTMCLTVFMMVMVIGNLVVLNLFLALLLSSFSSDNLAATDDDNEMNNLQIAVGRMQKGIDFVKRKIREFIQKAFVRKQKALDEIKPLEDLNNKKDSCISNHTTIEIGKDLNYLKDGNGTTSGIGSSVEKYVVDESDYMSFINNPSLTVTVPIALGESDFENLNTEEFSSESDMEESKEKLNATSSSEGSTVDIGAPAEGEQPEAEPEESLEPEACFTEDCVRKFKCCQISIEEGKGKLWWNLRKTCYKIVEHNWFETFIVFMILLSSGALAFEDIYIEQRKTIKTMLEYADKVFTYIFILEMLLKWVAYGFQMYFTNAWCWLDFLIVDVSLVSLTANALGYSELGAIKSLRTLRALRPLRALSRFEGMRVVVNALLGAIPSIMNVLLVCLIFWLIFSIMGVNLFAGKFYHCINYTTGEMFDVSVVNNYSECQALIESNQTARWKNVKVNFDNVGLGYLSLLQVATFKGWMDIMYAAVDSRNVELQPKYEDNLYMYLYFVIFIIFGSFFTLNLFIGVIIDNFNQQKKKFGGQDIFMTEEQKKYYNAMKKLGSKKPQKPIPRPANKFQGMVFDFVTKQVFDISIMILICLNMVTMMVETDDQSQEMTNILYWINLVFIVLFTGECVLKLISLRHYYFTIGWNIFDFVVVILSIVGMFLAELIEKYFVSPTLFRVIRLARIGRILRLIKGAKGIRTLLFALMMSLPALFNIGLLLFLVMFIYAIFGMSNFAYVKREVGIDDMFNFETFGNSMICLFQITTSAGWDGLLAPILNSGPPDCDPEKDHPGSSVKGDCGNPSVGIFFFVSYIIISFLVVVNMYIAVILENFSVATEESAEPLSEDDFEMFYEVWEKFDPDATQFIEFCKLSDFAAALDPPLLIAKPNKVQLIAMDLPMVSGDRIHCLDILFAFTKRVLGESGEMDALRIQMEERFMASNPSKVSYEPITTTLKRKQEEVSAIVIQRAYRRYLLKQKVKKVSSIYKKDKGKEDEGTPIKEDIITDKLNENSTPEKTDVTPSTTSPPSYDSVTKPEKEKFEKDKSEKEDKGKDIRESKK

Ac-DSKWKRDHSR-NH2 [Peptide D5K9]
% block of NaV1.2 (NaV1.2): 33.1 ± 0.9% | % block of NaV1.6 (NaV1.6): 36.0 ± 0.7%
